This experiment deals with Cannabinoid receptor 2 (Homo sapiens) (UniProt P34972). Briefly: Inhibition of [3H]CP-55940 binding to N-terminal FLAG-tagged/C-terminal 6His-tagged recombinant human CB2 receptor overexpressed in baculovirus infected insect Sf21 cells assessed as reduction of receptor Bmax at 10 nM after 1 hr relative to control.

Experimental findings from ChEMBL document CHEMBL3259803, “2012 Division of medicinal chemistry award address. Trekking the cannabinoid road: a personal perspective” (J Med Chem, 2014) are described below.

Cannabinoid receptor 2 (Homo sapiens), sequence (P34972 whole entry): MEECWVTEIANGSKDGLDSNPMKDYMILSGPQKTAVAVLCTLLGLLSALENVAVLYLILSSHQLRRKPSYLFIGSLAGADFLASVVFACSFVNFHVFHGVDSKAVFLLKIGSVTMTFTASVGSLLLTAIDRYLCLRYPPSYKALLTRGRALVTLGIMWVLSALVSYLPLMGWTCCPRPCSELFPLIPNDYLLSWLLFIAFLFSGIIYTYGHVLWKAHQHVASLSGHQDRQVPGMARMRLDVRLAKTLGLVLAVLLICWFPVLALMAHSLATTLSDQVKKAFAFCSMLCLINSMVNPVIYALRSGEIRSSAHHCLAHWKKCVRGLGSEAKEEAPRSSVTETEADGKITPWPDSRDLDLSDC

`CC(C)(CCCCCCN=C=S)c1ccc2c(c1)OC(C)(C)[C@@H]1CC[C@@H](CO)C[C@@H]21`: the inhibition is 75%.

Broadly, the inhibition is the change of the read-out against control, counted positive when it falls.
